PubChem BioAssay (NCI)
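Interpolation was linear, between the two tested concentrations surrounding the appropriate level; five concentrations were tested over 48 hours in 96-well plates. GI50 = concentration required for 50% inhibition of growth. TGI marks complete inhibition of growth.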

Assays:
Assay in all cases: NCI tumour cell line growth inhibition, 48 h
A549 NSCLC = system: A549 NSCLC
BT-549 breast = system: BT-549 breast
HCT-116 colon = system: HCT-116 colon
M14 melanoma = system: M14 melanoma
MDA-MB-435 = system: MDA-MB-435
MDA-N = system: MDA-N
MOLT-4 leukemia = system: MOLT-4 leukemia
NCI-H460 lung = system: NCI-H460 lung
SF-268 CNS = system: SF-268 CNS
SF-295 CNS = system: SF-295 CNS
SF-539 CNS = system: SF-539 CNS
NCI-H23 lung = system: NCI-H23 lung

SMILES	TGI (A549 NSCLC)	TGI (BT-549 breast)	TGI (HCT-116 colon)	TGI (M14 melanoma)	TGI (MDA-MB-435)	TGI (MDA-N)	TGI (MOLT-4 leukemia)	TGI (NCI-H460 lung)	TGI (SF-268 CNS)	TGI (SF-295 CNS)	TGI (SF-539 CNS)	TGI (NCI-H23 lung)	GI50 (HCT-116 colon)	GI50 (SF-539 CNS)
COc1cc2c(cc1OC)CC(N=[N+]=[N-])c1cc(OC)c(OC)cc1/C=C\2 (centres undefined)	> 100 µM	38.8 µM	> 100 µM	> 100 µM	> 100 µM	25.2 µM	> 100 µM	> 100 µM	> 100 µM	> 100 µM	> 100 µM	–	–	–
COc1ccc(CCNC(=O)Cc2cc(OC)c(OC)cc2CO)cc1OC	> 100 µM	> 100 µM	> 100 µM	> 100 µM	> 100 µM	> 100 µM	> 100 µM	> 100 µM	> 100 µM	> 100 µM	> 100 µM	> 100 µM	–	–
C1=C\CCCCN2C[C@H]3CCCC/C=C\CCCCN4CC[C@@H]([C@H](CCCCCC/1)C4)[C@H](C3)C2	6.95 µM	19.1 µM	4.41 µM	–	3.8 µM	3.26 µM	4.79 µM	3.68 µM	5.74 µM	3.53 µM	3.9 µM	18.9 µM	–	–
COCCOCCOC1=C(Cl)C(=O)c2c(O)ccc(O)c2C1=O	25.5 µM	4.01 µM	2.46 µM	3.29 µM	3.83 µM	9.63 µM	2.37 µM	29.8 µM	7.26 µM	27.1 µM	3.69 µM	6.03 µM	–	–
COc1ccc2c3c1OC1c4[nH]c5ccccc5c4CC4(O)C(C2)N(C)CCC314 (centres undefined)	> 100 µM	> 100 µM	> 100 µM	32.3 µM	35.7 µM	32.7 µM	54.1 µM	50.3 µM	> 100 µM	> 100 µM	–	> 100 µM	–	–
CCC(=O)O[C@H]1CC[C@H]2[C@@H]3CCC4=C/C(=N/NC(=O)c5cccc6c(=O)c7ccccc7[nH]c56)CC[C@]4(C)[C@H]3CC[C@]12C	> 25 µM	> 25 µM	–	> 25 µM	> 25 µM	> 25 µM	> 25 µM	> 25 µM	> 25 µM	> 25 µM	> 25 µM	> 25 µM	–	–
COC(=O)CCC12CCC(O1)c1ccccc12 (centres undefined)	> 100 µM	> 100 µM	> 100 µM	> 100 µM	> 100 µM	> 100 µM	> 100 µM	> 100 µM	–	> 100 µM	> 100 µM	> 100 µM	–	–
CC[C@H]1OC([C@H](O)C/C=C\C#C[Si](C)(C)C)C/C=C\C[C@H]1O[Si](C)(C)C(C)(C)C (some centres undefined)	> 100 µM	> 100 µM	> 100 µM	> 100 µM	> 100 µM	> 100 µM	> 100 µM	> 100 µM	> 100 µM	> 100 µM	–	> 100 µM	–	–
COC(=O)c1c(C)cccc1/C=C1\Cc2cc(C)cc(C)c2C1=O	> 100 µM	> 100 µM	> 100 µM	> 100 µM	–	> 100 µM	> 100 µM	> 100 µM	> 100 µM	> 100 µM	> 100 µM	> 100 µM	–	–
O=c1[nH]nc(Cc2ccccc2)n1Nc1ccccc1	> 100 µM	> 100 µM	> 100 µM	–	> 100 µM	> 100 µM	> 100 µM	> 100 µM	> 100 µM	> 100 µM	> 100 µM	> 100 µM	–	–
Cc1nnc2n1-c1ccccc1C(=S)N1CSCC21 (centres undefined)	> 100 µM	> 100 µM	> 100 µM	> 100 µM	> 100 µM	> 100 µM	> 100 µM	> 100 µM	> 100 µM	> 100 µM	–	–	–	–
S=C1N=C(Cl)C2(NN1)c1ccccc1-c1ccccc12	> 10 µM	> 10 µM	–	> 10 µM	–	> 10 µM	> 10 µM	> 10 µM	> 10 µM	–	> 10 µM	> 10 µM	–	–
Brc1ccc2[nH]cc(-c3nc(-c4c[nH]c5ccccc45)cs3)c2c1	15.8 µM	23.4 µM	7.15 µM	3.73 µM	13.3 µM	9.35 µM	–	4.9 µM	11.4 µM	10.6 µM	10.8 µM	8.84 µM	–	–
C#C[C@]1(O)CC[C@H]2[C@@H]3CCc4cc(OC(=O)c5cccc6cc7ccccc7nc56)ccc4[C@H]3CC[C@@]21C	> 100 µM	> 100 µM	80.1 µM	> 100 µM	> 100 µM	89.3 µM	> 100 µM	> 100 µM	> 100 µM	–	> 100 µM	> 100 µM	–	–
O=[N+]([O-])c1cccnc1NCC1(CO)CC(Cc2ccccc2)C1 (centres undefined)	> 100 µM	> 100 µM	> 100 µM	–	> 100 µM	> 100 µM	> 100 µM	> 100 µM	> 100 µM	> 100 µM	> 100 µM	> 100 µM	–	–
Cc1cccc(NC(=S)Nc2ccccc2Cl)n1	> 100 µM	> 100 µM	> 100 µM	> 100 µM	> 100 µM	> 100 µM	> 100 µM	> 100 µM	62 µM	> 100 µM	> 100 µM	–	–	–
COC(=O)c1cc(C#Cc2cc(OC)ccc2OC)ccc1OC	> 100 µM	> 100 µM	> 100 µM	> 100 µM	> 100 µM	> 100 µM	70 µM	> 100 µM	> 100 µM	–	> 100 µM	> 100 µM	37.7 µM	81.1 µM
COc1cc2c(c(OC)c1OC)-c1ccc(SC)cc1[C@H](OC(=O)c1ccccc1)CC2	–	> 100 µM	1.45 µM	–	> 100 µM	0.0222 µM	> 100 µM	> 100 µM	> 100 µM	> 100 µM	0.0841 µM	> 100 µM	–	–
O=[N+]([O-])c1cn[n+]([O-])c2ccccc12	30.1 µM	18.8 µM	2.62 µM	13 µM	27.8 µM	27.5 µM	–	24.5 µM	17.9 µM	17.6 µM	22.7 µM	36.1 µM	–	–
CC(=O)Nc1ccc2[nH]c(-c3cccc(F)c3)cc(=O)c2c1	> 100 µM	> 100 µM	–	> 100 µM	3.85 µM	> 25.4 µM	> 100 µM	> 100 µM	–	> 77.2 µM	6.92 µM	> 56.8 µM	–	–
